The source made the active and inactive calls. Rule as the data show it, for most assays here: actives have a measured EC50 and inactives only a lower limit.
Tests used:
A-375 = experiment: proliferation inhibition in MITF-low A375 cells – cell-based, cherry-pick samples, set 2, counter-screen for MITF modulator project, dose response (AID 540335); type: functional; details: Homo sapiens
Protein RecA = target: T1, Protein RecA (Mycobacterium tuberculosis, UniProt P9WHJ3); experiment: Fluorescence Cell-Free Homogeneous Dose Retest to Identify Inhibitors of RecA-Intein Splicing Activity. [Related pubchem assays (depositor defined):AID2097, AID2223, AID489010, AID492950]; type: functional
T1 sequence (P9WHJ3 whole entry): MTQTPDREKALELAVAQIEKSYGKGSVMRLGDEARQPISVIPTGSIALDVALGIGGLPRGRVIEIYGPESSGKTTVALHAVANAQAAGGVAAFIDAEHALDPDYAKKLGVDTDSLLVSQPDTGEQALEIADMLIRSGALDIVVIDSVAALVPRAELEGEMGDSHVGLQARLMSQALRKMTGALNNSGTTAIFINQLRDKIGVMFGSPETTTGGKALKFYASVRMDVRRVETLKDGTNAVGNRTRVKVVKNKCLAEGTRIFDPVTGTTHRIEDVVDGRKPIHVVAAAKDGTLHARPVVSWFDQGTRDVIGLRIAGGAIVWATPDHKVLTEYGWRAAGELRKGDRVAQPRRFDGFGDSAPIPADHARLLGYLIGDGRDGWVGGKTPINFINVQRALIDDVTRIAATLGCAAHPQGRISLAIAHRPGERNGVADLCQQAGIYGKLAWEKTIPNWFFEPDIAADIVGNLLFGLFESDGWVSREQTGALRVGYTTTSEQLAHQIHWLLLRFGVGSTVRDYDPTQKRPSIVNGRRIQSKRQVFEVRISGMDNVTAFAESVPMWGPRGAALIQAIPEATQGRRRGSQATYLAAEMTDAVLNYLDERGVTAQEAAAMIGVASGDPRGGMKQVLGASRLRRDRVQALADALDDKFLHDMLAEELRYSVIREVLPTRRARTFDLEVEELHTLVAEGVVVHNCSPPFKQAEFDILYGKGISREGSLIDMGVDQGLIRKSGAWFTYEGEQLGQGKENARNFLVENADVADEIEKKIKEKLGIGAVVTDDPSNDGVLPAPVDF

[1] = fluconazole-exposed Candida albicans growth modulators – fluorescence, retest, confirmation (AID 2467); type: functional, cell-based
[2] = NIH3T3 cell viability loss – ATP luminescence, mouse fibroblasts, counter-screen, dose response (AID 2010); type: functional, cell-based;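 also: cells exposed to compound for about 90 hours before reading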
[3] = NIH-3T3 fibroblast cytotoxicity, dose response, cytotoxicity control, cell-based, fluorescence, Alamar Blue, secondary assay (AID 2327); type: functional;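 also: NIH-3T3 mouse fibroblasts cultured with fluconazole at 8 µg/mL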
[4] = target: T2, Replicative DNA helicase DnaB (Mycobacterium tuberculosis, UniProt P9WMR3); experiment: DnaB intein splicing inhibitors, dose response, biochemical, cell-free fluorescence (AID 449749); type: functional
T2 sequence (P9WMR3 whole entry): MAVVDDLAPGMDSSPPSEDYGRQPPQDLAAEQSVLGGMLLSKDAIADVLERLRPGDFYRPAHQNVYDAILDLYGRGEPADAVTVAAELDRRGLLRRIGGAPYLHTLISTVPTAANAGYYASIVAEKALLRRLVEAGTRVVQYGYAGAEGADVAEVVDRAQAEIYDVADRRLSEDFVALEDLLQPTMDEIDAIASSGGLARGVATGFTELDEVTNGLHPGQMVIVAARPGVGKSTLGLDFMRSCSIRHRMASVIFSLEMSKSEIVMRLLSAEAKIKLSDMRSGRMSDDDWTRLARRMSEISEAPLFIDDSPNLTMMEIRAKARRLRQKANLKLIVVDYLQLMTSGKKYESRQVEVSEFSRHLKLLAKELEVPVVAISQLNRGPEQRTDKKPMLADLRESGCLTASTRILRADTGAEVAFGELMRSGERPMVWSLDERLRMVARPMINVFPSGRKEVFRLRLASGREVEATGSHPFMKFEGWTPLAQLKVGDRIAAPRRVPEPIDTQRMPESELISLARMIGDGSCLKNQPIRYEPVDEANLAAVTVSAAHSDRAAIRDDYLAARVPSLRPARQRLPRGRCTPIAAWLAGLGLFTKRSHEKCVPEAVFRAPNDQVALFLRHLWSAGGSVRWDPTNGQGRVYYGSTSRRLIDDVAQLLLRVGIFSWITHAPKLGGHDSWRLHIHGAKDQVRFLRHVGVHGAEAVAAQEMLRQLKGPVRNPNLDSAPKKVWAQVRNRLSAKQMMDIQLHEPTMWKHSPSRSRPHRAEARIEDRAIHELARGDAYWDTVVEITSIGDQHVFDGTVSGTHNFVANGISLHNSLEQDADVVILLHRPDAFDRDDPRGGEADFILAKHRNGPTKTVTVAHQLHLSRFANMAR

[5] = target: T3, Microphthalmia-associated transcription factor (Homo sapiens, UniProt O75030); experiment: reducers of TRPM1 reporter luminescence, concentration series – cell-based, SK-MEL-5, cherry-picked, set 3, MITF inhibitor project, dose response (AID 493073); type: functional;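 also: SK-MEL-5 melanoma cells with luciferase driven by the MITF target TRPM1 promoter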
T3 sequence (O75030 whole entry): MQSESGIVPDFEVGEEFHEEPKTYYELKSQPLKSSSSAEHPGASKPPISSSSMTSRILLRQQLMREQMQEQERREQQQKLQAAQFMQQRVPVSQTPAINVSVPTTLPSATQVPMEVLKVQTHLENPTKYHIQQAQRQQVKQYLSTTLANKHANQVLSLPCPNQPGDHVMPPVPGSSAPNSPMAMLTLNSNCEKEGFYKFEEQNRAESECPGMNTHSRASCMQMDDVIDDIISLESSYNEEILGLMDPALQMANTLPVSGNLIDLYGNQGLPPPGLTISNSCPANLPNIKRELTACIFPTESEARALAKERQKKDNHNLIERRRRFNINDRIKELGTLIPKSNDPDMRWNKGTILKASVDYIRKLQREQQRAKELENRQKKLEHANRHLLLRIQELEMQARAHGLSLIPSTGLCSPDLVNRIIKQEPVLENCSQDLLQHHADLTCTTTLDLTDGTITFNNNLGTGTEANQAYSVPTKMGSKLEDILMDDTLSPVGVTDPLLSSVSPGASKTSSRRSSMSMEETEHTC

[6] = Trypanosoma cruzi growth suppression in host cells – NIH3T3 host cells, beta-gal luminescence, confirmation (AID 2044); type: functional, cell-based;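 also: intracellular parasites grown in NIH/3T3 mouse fibroblasts as host cells; luminescent beta-galactosidase reporter signal from transgenic T. cruzi replicating inside host cells; inhibitors lower the luminescence signal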
HEK293 [7] = experiment: cells; details: Homo sapiens
HEK293 [8] = experiment: cells; details: Homo sapiens; remark: listed apart in the source
BJ [9] = experiment: BJ-TERT fibroblast viability loss – cell-based, RAS-independent, luminescence, dose response (AID 1933); type: functional; details: Homo sapiens
BJ [10] = experiment: BJ-TERT-LT-ST fibroblast viability loss – cell-based, RAS-independent, luminescence, dose response (AID 1935); type: functional; details: Homo sapiens;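 also: BJ fibroblasts immortalized with TERT plus LT and ST oncogenes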
[11] = alpha-synuclein stem-loop luciferase translation blockers – H4 neuroglioma cells, luminescence, confirmation (AID 1988); type: functional, cell-based
BJ [12] = experiment: cells; type: functional, cell-based; details: Homo sapiens
[13] = HEK-293T viability loss after treatment – luminescence, T-cell screen hits, cytotoxicity control for TCR NF-kB inhibitor project, dose response (AID 489026); type: functional, cell-based;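 also: cells exposed to compound about 14 hours before the viability readout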
[14] = DRD fibroblast viability loss – cell-based, non-viral oncogenic, luminescence, dose response (AID 1934); type: functional; details: Homo sapiens
[15] = Luminescence Cell-Based Dose Response HTS to Identify Inhibitors of 5'UTR Stem-Loop Driven Prion Protein mRNA Translation in H4 Neuroglioblastoma Cells. [Related pubchem assays: 1827 (Project Summary), 1813 (Primary HTS)]; type: functional
BJ [16] = experiment: growth inhibition of engineered Ras-driven BJ cells – cell-based, alamar blue fluorescence, cherrypicked samples, dose response (AID 2631); type: functional; details: Homo sapiens;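 also: confirmatory dose-response assay in RAS-dependent BJ fibroblasts engineered with TERT, LT and ST, with cytotoxicity read by fluorescence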
[17] = luciferase reporter signal suppression in cells – H4 neuroglioma cells, luminescence, dose response (AID 1990); type: functional, cell-based
[18] = blockers of HIV-1 envelope-mediated cell-cell fusion – cherry-pick, dose response (AID 652057); type: functional, cell-based
[19] = HIV-1 AD8 envelope cell-cell fusion blockers – cherry-pick, dose response (AID 652062); type: functional, cell-based;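 also: luciferase signal from cell-cell fusion driven by HIV-1 clade B AD8 Env; potency is for inhibitors of fusion seen as a drop in luminescence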
[20] = off-target signal loss in HeLa-CEM21 co-culture – HeLa F-luc CTL cells, cherry-picked, counter-screen for HIV-1 Env fusion inhibitor project, dose response (AID 652040); type: functional, cell-based;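 also: potency for signal decrease marking cytotoxic or nonspecific inhibition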
[21] = blockers of HIV-1 ZM109 envelope-driven cell-cell fusion – HeLa effector, CEM target cells, luciferase, cherry-pick, dose response (AID 652058); type: functional, cell-based;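 also: luciferase signal from HIV-1 Env mediated cell-cell fusion of effector and target cells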

Structure (SMILES): O=C(CCl)N1c2ccccc2CCc2ccccc21
- AC50 (A-375): 42.7 µM (active)
- EC50 (Protein RecA): 0.45 µM (active)
- EC50 [1]: 2.36 µM (active)
- EC50 [2]: 4.26 µM (active)
- EC50 [3]: 5.37 µM (inconclusive)
- AC50 [4]: 7.5 µM (active)
- AC50 [5]: 5.54 µM (active)
- EC50 [6]: 2.09 µM (active)

Structure (SMILES): Cc1ccc(S(=O)(=O)Cn2nnnc2C(C(C)C)N2CCc3ccccc3C2)cc1 (stereo not given)
- EC50 (HEK293 [7]): > 59.6 µM (inactive)
- EC50 (HEK293 [8]): > 59.6 µM (inactive)

Structure (SMILES): CC1=CC(C)(C)N(S(=O)(=O)c2ccc(C)cc2)c2cc(C)ccc21
- EC50 (BJ [9]): 1.34 µM (active)
- EC50 (BJ [10]): 1.3 µM (inconclusive)
- EC50 [11]: 4.44 µM (inconclusive)
- EC50 (BJ [12]): 2.65 µM (active)
- IC50 [13]: > 80 µM (inactive)
- EC50 [14]: 1.95 µM (active)
- EC50 [15]: 9.84 µM (active)
- EC50 (BJ [16]): 0.353 µM (active)
- EC50 [17]: 4.98 µM (inconclusive)

Structure (SMILES): C[C@@]12C(=O)N(CCc3c[nH]c4ccccc34)CC(=O)N1[C@H]1c3ccccc3OC[C@@H]1[C@@H]2c1ccccc1
- EC50 (HEK293 [7]): > 59.7 µM (inactive)
- AC50 [18]: 2.67 µM (active)
- EC50 (HEK293 [8]): > 59.7 µM (inactive)
- AC50 [19]: 4.46 µM (active)
- AC50 [20]: 3.73 µM (active)
- AC50 [21]: 2.7 µM (active)

Reference: ChEMBL document CHEMBL1201862, “PubChem BioAssay data set” (2004)
